{"source": "patent US8921569B2", "about": "“Rationally improved isoniazid and ethionamide derivatives and activity through selective isotopic substitution” (STC.UNM, priority 2007, dated 2014)", "key": {"M bovis BCG [1]": {"tested_on": "M bovis BCG", "assay_type": "cell-based", "settings": "O 1 micrograms per ml, 3 or 4 days after treatment, triplicate cultures"}, "M bovis BCG [2]": {"tested_on": "M bovis BCG", "assay_type": "cell-based", "settings": "O 1 micrograms per ml, cultures at day 4 plated out"}}, "data": [{"smiles": "NN[13C](=O)c1ccncc1", "note": "[C13 INH, 4-pyridine-[^13C]carboxylic acid hydrazide]", "values": [{"measurement": "antimicrobial effects by cultures optical density, compared with 12C isoniazid", "setting": "M bovis BCG [1]", "result": "significant increase in activity"}, {"measurement": "activity by CFU (colony forming units), compared with 12C isoniazid", "setting": "M bovis BCG [2]", "result": "marked expected increase in activity"}]}]}
